In general, IC50 refers to the point on the concentration scale where inhibition reaches its midpoint.

A short description of assay [1]: Inhibition of ERK phosphorylation in human SW620 cells harboring KRAS G12V mutant incubated for 4 hrs by absorbance based analysis. The note with it: SW-620, 4 h. Type of assay: cell-based.
Assay [2] can be described thus: Inhibition of ERK phosphorylation in human NCI-H358 cells harboring KRAS G12C mutant incubated for 4 hrs by absorbance based analysis. The note with it: NCI-H358, 4 h. Type of assay: cell-based.
Assay [3] can be described thus: Inhibition of ERK phosphorylation in human AGS cells harboring KRAS G12D mutant incubated for 4 hrs by absorbance based analysis. Type of assay: cell-based.
Assay [4] is described as follows: Disruption of 6-his tagged KRAS G12V mutant/BRAF RBD complex (unknown origin) incubated for 3 hrs in the presence of CYPA by TR-FRET assay. Set-up: species or system Homo sapiens. (In general: Time-resolved FRET reads energy transfer from a long-lived donor to a nearby acceptor.)
Assay [5] is described as follows: Disruption of 6-his tagged KRAS G12D mutant/BRAF RBD complex (unknown origin) incubated for 3 hrs in the presence of CYPA by TR-FRET assay. More on the design: species or system Homo sapiens.
Assay [6] in a line: Disruption of 6his-tagged KRAS G12C mutant/BRAF RBD complex (unknown origin) incubated for 3 hrs in the presence of CYPA by TR-FRET assay. Set-up: species or system Homo sapiens.
Another assay relates to SW-620. The experiment in a line: Anticancer activity against human SW620 cells harboring KRAS G12V mutant assessed as inhibition of cell viability incubated for 72 hrs by cell counting kit 8 method. Type of assay: functional, cell-based. The note with it: SW-620, 72 h. (Tetrazolium assays rely on reduction of a dye to a coloured formazan, in cell work by metabolically active cells.)

In a further assay the test system is NCI-H358. The experiment in a line: Anticancer activity against human NCI-H358 cells harboring KRAS G12C mutant assessed as inhibition of cell viability incubated for 72 hrs by cell counting kit 8 method. Type of assay: functional, cell-based. The note with it: NCI-H358, 72 h.
For another assay, the system named is AGS. Briefly: Anticancer activity against human AGS cells harboring KRAS G12D mutant assessed as inhibition of cell viability incubated for 72 hrs by cell counting kit 8 method. Type of assay: functional, cell-based.

Bounds are passed on as bounds.

For the compound `CO[C@@H](C)c1ncc(N2CCN(C)CC2)cc1-c1c2c3cc(cc4c3n1CCC4)-c1csc(n1)C[C@H](NC(=O)[C@H](C(C)C)N1CCC3(CN(C(=O)[C@H](F)Cl)C3)C1=O)C(=O)N1CCC[C@H](N1)C(=O)OCC(C)(C)C2`, the IC50 amounted to 38 nM in [1], 19 nM in assay [2] and 62 nM in assay [3].

On to `CO[C@@H](C)c1ncccc1-c1c2c3cc(cc4c3n1CCC4)-c1cc(O)cc(c1)C[C@H](NC(=O)[C@H](C(C)C)N(C)C(=O)C1(F)CCN(C(=O)[C@H](F)Cl)CC1)C(=O)N1CCC[C@H](N1)C(=O)OCC(C)(C)C2`, for which the half-inhibitory concentration (IC50) in [4] amounted to 164 nM; in assay [5], 1880 nM; in [6], 6 nM.

On to `CO[C@@H](C)c1ncc(N2CCOCC2)cc1-c1c2c3cc(cc4c3n1CCC4)-c1csc(n1)C[C@H](NC(=O)[C@H](C(C)C)N(C)C(=O)C1(F)CCN(C(=O)[C@H](F)Cl)CC1)C(=O)N1CCC[C@H](N1)C(=O)OCC(C)(C)C2`, for which the half-inhibitory concentration (IC50) in [1] was 23 nM; in [2] it was 1 nM; in assay [3], more than 10000 nM.

Take `CO[C@@H](C)c1ncc(N2CCN(C)CC2)cc1-c1c2c3cc(cc4c3n1CCC4)-c1csc(n1)C[C@H](NC(=O)[C@H](C(C)C)N(C)C(=O)C1(F)CCN(C(=O)[C@H](F)Cl)CC1)C(=O)N1CCC[C@H](N1)C(=O)OCC(C)(C)C2`: the IC50 in the assay with SW-620 is 107 nM; with NCI-H358, 2 nM; in the assay on AGS, 292 nM.

Regarding `CO[C@@H](C)c1ncccc1-c1c2c3cc(cc4c3n1CCO4)-c1cc(O)cc(c1)C[C@H](NC(=O)[C@H](C(C)C)N(C)C(=O)C1(F)CCN(C(=O)[C@H](F)Cl)CC1)C(=O)N1CCC[C@H](N1)C(=O)OCC(C)(C)C2`, the results for the IC50 in assay [4], in assay [5] and in assay [6] were 445 nM, 3910 nM and 16 nM, respectively.

For `CO[C@@H](C)c1ncc(N2CCOCC2)cc1-c1c2c3cc(cc4c3n1CC(F)(F)C4)-c1csc(n1)C[C@H](NC(=O)[C@H](C(C)C)N(C)C(=O)C1(F)CCN(C(=O)[C@H](F)Cl)CC1)C(=O)N1CCC[C@H](N1)C(=O)OCC(C)(C)C2`, the IC50 in the assay with SW-620 amounted to 26 nM; with NCI-H358 it was 8 nM; in the assay with AGS it was 16 nM.

The values above are taken from ChEMBL document CHEMBL6153168, “Novel Tricyclic KRAS Inhibitors for the Treatment of Cancer” (ACS Med Chem Lett, 2025).
